Test results from PubChem BioAssay AID248 (DTP/NCI, 2004).
Where “and” joins values, the source holds several entries; their conditions need not be identical. Identical values can stand only once. Inconclusive results and toxic doses are left out. Rule as the data show it: active = T/C of 150% or more; inactive = T/C below 125%.

System: L1210 leukemia ip in BDF1 mice, survival T/C
Assay: NCI In Vivo Anticancer Drug Screen. Data for tumor model L1210 Leukemia (intraperitoneal) in B6D2F1 (BDF1) mice
Settings: endpoint: mean survival time, higher = longer survival
Outline: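 Value reflects the ratio of survival in compound-treated mice to survival in vehicle-treated controls, with both groups carrying the same transplanted tumor.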

[1] = dose: 100.0 mg/kg/injection, schedule: Q04DX003 (ip), vehicle: Klucel (hydroxypropylcellulose) (HPC)
[2] = dose: 200.0 mg/kg/injection, schedule: Q04DX003 (ip), vehicle: Klucel (hydroxypropylcellulose) (HPC)
[3] = dose: 400.0 mg/kg/injection, schedule: Q04DX003 (ip), vehicle: Klucel (hydroxypropylcellulose) (HPC)
[4] = dose: 25.0 mg/kg/injection, schedule: Q04DX002 (ip), vehicle: Klucel (hydroxypropylcellulose) (HPC)
[5] = dose: 50.0 mg/kg/injection, schedule: Q04DX002 (ip), vehicle: Klucel (hydroxypropylcellulose) (HPC)
[6] = dose: 100.0 mg/kg/injection, schedule: Q01DX009 (ip), vehicle: Klucel (hydroxypropylcellulose) (HPC)
[7] = dose: 200.0 mg/kg/injection, schedule: Q01DX009 (ip), vehicle: Klucel (hydroxypropylcellulose) (HPC)
[8] = dose: 400.0 mg/kg/injection, schedule: Q01DX009 (ip), vehicle: Klucel (hydroxypropylcellulose) (HPC)
[9] = dose: 100.0 mg/kg/injection, schedule: Q01DX001 (ip), vehicle: carboxymethylcellulose (CMC)
[10] = dose: 200.0 mg/kg/injection, schedule: Q01DX001 (ip), vehicle: carboxymethylcellulose (CMC)
[11] = dose: 400.0 mg/kg/injection, schedule: Q01DX001 (ip), vehicle: carboxymethylcellulose (CMC)
[12] = dose: 100.0 mg/kg/injection, schedule: Q01DX009 (ip), vehicle: saline with Tween-80
[13] = dose: 200.0 mg/kg/injection, schedule: Q01DX009 (ip), vehicle: saline with Tween-80
[14] = dose: 50.0 mg/kg/injection, schedule: Q01DX009 (ip), vehicle: Klucel (hydroxypropylcellulose) (HPC)
[15] = dose: 100.0 mg/kg/injection, schedule: Q04DX003 (ip), vehicle: saline with Tween-80
[16] = dose: 200.0 mg/kg/injection, schedule: Q04DX003 (ip), vehicle: saline with Tween-80
[17] = dose: 400.0 mg/kg/injection, schedule: Q04DX003 (ip), vehicle: saline with Tween-80
[18] = dose: 100.0 mg/kg/injection, schedule: Q04DX002 (ip), vehicle: saline with Tween-80
[19] = dose: 200.0 mg/kg/injection, schedule: Q04DX002 (ip), vehicle: saline with Tween-80
[20] = dose: 400.0 mg/kg/injection, schedule: Q04DX002 (ip), vehicle: saline with Tween-80

Measured: T/C

O=Cc1cc2cccnc2s1
inactive: [1] 103 % of control | [2] 100 % of control | [3] 100 % of control

C[n+]1ccccc1/C=C/c1ccc(O)c2ccccc12
inactive: dose: 15.0 mg/kg/injection, schedule: Q01DX001 (ip), vehicle: saline 97 % of control | dose: 30.0 mg/kg/injection, schedule: Q01DX001 (ip), vehicle: saline 91 % of control | dose: 60.0 mg/kg/injection, schedule: Q01DX001 (ip), vehicle: saline 103 % of control | dose: 75.0 mg/kg/injection, schedule: Q01DX001 (ip), vehicle: saline 103 % of control

CC(C)C(=O)[O][Pb]([c]1ccccc1)([c]1ccccc1)[c]1ccccc1
inactive: dose: 12.5 mg/kg/injection, schedule: Q04DX002 (ip), vehicle: Klucel (hydroxypropylcellulose) (HPC) 101 % of control | [4] 97 % of control | [5] 97 % of control

NC(=O)C(=O)OCc1ccccc1
inactive: dose: 100.0 mg/kg/injection, schedule: Q01DX001 (ip), vehicle: steriod suspending solution 105 % of control | dose: 200.0 mg/kg/injection, schedule: Q01DX001 (ip), vehicle: steriod suspending solution 97 % of control | dose: 400.0 mg/kg/injection, schedule: Q01DX001 (ip), vehicle: steriod suspending solution 94 % of control

CSc1ccccc1C(=O)NNS(=O)(=O)c1ccc(C)cc1
inactive: [6] 101 % of control | [1] 95 % of control | [7] 103 % of control | [2] 97 % of control | [8] 95 % of control | [3] 97 % of control

CSc1ccc(OC(=O)Oc2ccc(SC)cc2)cc1
inactive: [9] 97 % of control | [10] 95 % of control | [11] 92 % of control

COc1ccc(Cl)cc1
inactive: [12] 92 % of control | [13] 90 % of control

C/C=C/C=N/NC(=O)c1ccccc1O
inactive: [6] 102 % of control | [7] 105 % of control | [8] 94 % of control

CC(=O)Nc1c(OC(C)=O)ccc2cc(Br)ccc12
inactive: dose: 100.0 mg/kg/injection, schedule: Q01DX015 (ip), vehicle: saline 92 % of control | dose: 200.0 mg/kg/injection, schedule: Q01DX015 (ip), vehicle: saline 100 % of control | dose: 400.0 mg/kg/injection, schedule: Q01DX015 (ip), vehicle: saline 92 % of control | dose: 800.0 mg/kg/injection, schedule: Q01DX015 (ip), vehicle: saline 96 % of control

COc1cc(Cn2cccc2C=O)c([N+](=O)[O-])cc1OC
inactive: [4] 89 % of control | [5] 101 % of control | dose: 100.0 mg/kg/injection, schedule: Q04DX002 (ip), vehicle: Klucel (hydroxypropylcellulose) (HPC) 86 % of control

C=CCN(CC=C)CCNc1cc(C)nc(/N=C(\N)Nc2ccc(Cl)c(Cl)c2)n1
inactive: dose: 75.0 mg/kg/injection, schedule: Q01DX001 (ip), vehicle: other 92 % of control | dose: 150.0 mg/kg/injection, schedule: Q01DX001 (ip), vehicle: other 92 % of control | dose: 300.0 mg/kg/injection, schedule: Q01DX001 (ip), vehicle: other 92 % of control

CCS/C(Cl)=C(\Cl)SCC
inactive: dose: 25.0 mg/kg/injection, schedule: Q01DX009 (ip), vehicle: Klucel (hydroxypropylcellulose) (HPC) 101 % of control | [14] 106 % of control | [6] 102 % of control and 109 % of control

CCCCCCCCCCCCOC(=O)C[n+]1cccc(C(=O)NC)c1
inactive: dose: 12.5 mg/kg/injection, schedule: Q04DX003 (ip), vehicle: saline with Tween-80 101 % of control | dose: 25.0 mg/kg/injection, schedule: Q04DX003 (ip), vehicle: saline with Tween-80 97 % of control | dose: 50.0 mg/kg/injection, schedule: Q04DX003 (ip), vehicle: saline with Tween-80 95 % of control

CC(C(=O)O)N1C(=O)C2C3C=CC(C3)C2C1=O (configuration not stated)
inactive: [15] 94 % of control | [16] 102 % of control | [17] 97 % of control

O=c1cc(CO)[nH]c(=O)[nH]1
inactive: dose: 50.0 mg/kg/injection, schedule: Q01DX001 (ip), vehicle: saline 104 % of control | [14] 94 % of control | dose: 100.0 mg/kg/injection, schedule: Q01DX001 (ip), vehicle: saline 102 % of control | [6] 90 % of control | dose: 200.0 mg/kg/injection, schedule: Q01DX001 (ip), vehicle: saline 98 % of control | [7] 97 % of control | dose: 400.0 mg/kg/injection, schedule: Q01DX001 (ip), vehicle: saline 98 % of control

O=C1OC(c2cccc(Cl)c2)=N/C1=C\c1ccc(O)cc1
inactive: [18] 118 % of control | [19] 100 % of control | [20] 104 % of control

O=C(Nc1ccc(Nc2ccccc2)cc1)Nc1ccc(F)c(Cl)c1
inactive: [1] 92 % of control | [2] 94 % of control | [3] 94 % of control

CCCCCCCCCCCCCCCCCC(=O)OCC(O)COC(C)=O (configuration not stated)
inactive: dose: 12.5 mg/kg/injection, schedule: Q01DX009 (ip), vehicle: saline with Tween-80 98 % of control | dose: 25.0 mg/kg/injection, schedule: Q01DX009 (ip), vehicle: saline with Tween-80 95 % of control | dose: 50.0 mg/kg/injection, schedule: Q01DX009 (ip), vehicle: saline with Tween-80 95 % of control | [12] 91 % of control | [13] 91 % of control

CC(=O)c1cccc(N)c1
inactive: [6] 94 % of control | dose: 100.0 mg/kg/injection, schedule: Q04DX003 (ip), vehicle: saline 95 % of control | [7] 93 % of control | dose: 200.0 mg/kg/injection, schedule: Q04DX003 (ip), vehicle: saline 95 % of control | [8] 93 % of control | dose: 400.0 mg/kg/injection, schedule: Q04DX003 (ip), vehicle: saline 88 % of control

O=C(CS(=O)(=O)C1CCCCC1)C1CCCCC1
inactive: [15] 94 % of control | [16] 94 % of control | [17] 88 % of control

Cc1c2oc3c(C)ccc(C(=O)NCCN4CCN(c5ccccc5)CC4)c3nc-2c(C(=O)NCCN2CCN(c3ccccc3)CC2)c(N)c1=O
inactive: [18] 92 % of control | [19] 95 % of control | [20] 95 % of control

CC(C)=CCCC1(C)C=Cc2c(c(C)cc3c4ccccc4n(C)c23)O1 (configuration not stated)
inactive: dose: 25.0 mg/kg/injection, schedule: Q04DX002 (ip), vehicle: DMSO 96 % of control | dose: 50.0 mg/kg/injection, schedule: Q04DX002 (ip), vehicle: DMSO 89 % of control | dose: 100.0 mg/kg/injection, schedule: Q04DX002 (ip), vehicle: DMSO 99 % of control

O=C(O)c1cccc([N+](=O)[O-])c1O
inactive: dose: 12.5 mg/kg/injection, schedule: Q04DX002 (ip), vehicle: saline with Tween-80 95 % of control | dose: 25.0 mg/kg/injection, schedule: Q04DX002 (ip), vehicle: saline with Tween-80 95 % of control | dose: 50.0 mg/kg/injection, schedule: Q01DX001 (ip), vehicle: carboxymethylcellulose (CMC) 97 % of control | dose: 50.0 mg/kg/injection, schedule: Q04DX002 (ip), vehicle: saline with Tween-80 100 % of control | [9] 87 % of control | [6] 103 % of control | [1] 93 % of control | [10] 87 % of control | [7] 95 % of control | [2] 90 % of control | [11] 92 % of control | [8] 93 % of control | [3] 96 % of control
